Test results: patent publication US7300946B2, “N-(substituted arylmethyl)-4-(disubstituted methyl) piperidines and pyridines” (Bayer CropScience AG, priority 2002, dated 2007)

Each compound was assayed on tobacco budworm (Heliothis virescens [Fabricius]) (assay: surface-treated diet test against the tobacco budworm). Details: tobacco budworm second instar larvae; 0.25 millimoles of candidate insecticide on the surface of the diet; five-day exposure; compared to total number of insects infested.
Assay type: in vivo
Method in brief: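 Wheat germ artificial diet surface-treated with 40 µL of 50 mM DMSO stock diluted 1:7 in 1:1 water/acetone (0.25 millimolar on diet), or sub-multiples for rate tests. One second-instar larva per well, 25° C, 60% RH, 5 days; percent weight inhibition vs DMSO controls and percent mortality.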

Row | Structure (SMILES) | Percent Mortality
1 | O=C(Nc1cc(F)cc(F)c1)OC(c1ccc(C(F)(F)F)cc1)C1CC[N+]([O-])(Cc2ccc(Oc3ccc(Cl)nn3)cc2)CC1 (stereo not drawn) [Compound 768] | 100%
2 | CS(=O)(=O)Nc1ccc(CN2CCC(=C(c3ccc(C(F)(F)F)cc3)c3ccc(C(F)(F)F)cc3)CC2)cc1 [Compound 805] | 33%
3 | CC(C)OC(=O)Nc1ccc(CN2CCC(=C(c3ccccc3)c3ccccc3)CC2)cc1 [Compound 793] | 0%
4 | [O-][N+]1(Cc2ccc(Oc3ncccn3)cc2)CCC(=C(c2ccc(C(F)(F)F)cc2)c2cc(Cl)cc(Cl)c2)CC1 (stereo not drawn) [Compound 851] | 50%
5 | [O-][N+]1(Cc2ccc(Oc3ncccn3)cc2)CCC(=C(c2ccc(C(F)(F)F)cc2)c2ccc(Cl)c(Cl)c2)CC1 (stereo not drawn) [Compound 850] | 100%
6 | Clc1ccc(C(=C2CCN(Cc3ccc(Oc4ncccn4)cc3)CC2)c2ccc(Cl)c(Cl)c2)cc1Cl [Compound 813] | 100%
7 | CC(C)NC(=O)OC(c1ccc(C(F)(F)F)cc1)C1CC[N+]([O-])(Cc2ccc(Oc3ccccn3)cc2)CC1 (stereo not drawn) [Compound 785] | 100%
8 | CC(C)OC(=O)Nc1ccc(CN2CCC(=C(c3ccc(Cl)c(F)c3)c3ccc(Cl)c(F)c3)CC2)cc1 [Compound 796] | 100%
9 | COC(=O)N(c1ccc(C[N+]2([O-])CCC(C(OC(=O)Nc3cc(F)cc(F)c3)c3ccc(C(F)(F)F)cc3)CC2)cc1)c1ccccn1 (stereo not drawn) [Compound 761] | 100%

Same assay, conditions: tobacco budworm second instar larvae; 0.25 millimoles of candidate insecticide on the surface of the diet; five-day exposure; inhibition of insect weight relative to untreated controls

Row | Structure (SMILES) | Percent Growth Inhibition
10 | O=C(Nc1cc(F)cc(F)c1)OC(c1ccc(C(F)(F)F)cc1)C1CC[N+]([O-])(Cc2ccc(Oc3ccc(Cl)nn3)cc2)CC1 (stereo not drawn) [Compound 768] | 100%
11 | CS(=O)(=O)Nc1ccc(CN2CCC(=C(c3ccc(C(F)(F)F)cc3)c3ccc(C(F)(F)F)cc3)CC2)cc1 [Compound 805] | 100%
12 | CC(C)OC(=O)Nc1ccc(CN2CCC(=C(c3ccccc3)c3ccccc3)CC2)cc1 [Compound 793] | 76%
13 | [O-][N+]1(Cc2ccc(Oc3ncccn3)cc2)CCC(=C(c2ccc(C(F)(F)F)cc2)c2cc(Cl)cc(Cl)c2)CC1 (stereo not drawn) [Compound 851] | 100%
14 | [O-][N+]1(Cc2ccc(Oc3ncccn3)cc2)CCC(=C(c2ccc(C(F)(F)F)cc2)c2ccc(Cl)c(Cl)c2)CC1 (stereo not drawn) [Compound 850] | 100%
15 | Clc1ccc(C(=C2CCN(Cc3ccc(Oc4ncccn4)cc3)CC2)c2ccc(Cl)c(Cl)c2)cc1Cl [Compound 813] | 100%
16 | CC(C)NC(=O)OC(c1ccc(C(F)(F)F)cc1)C1CC[N+]([O-])(Cc2ccc(Oc3ccccn3)cc2)CC1 (stereo not drawn) [Compound 785] | 100%
17 | CC(C)OC(=O)Nc1ccc(CN2CCC(=C(c3ccc(Cl)c(F)c3)c3ccc(Cl)c(F)c3)CC2)cc1 [Compound 796] | 100%
18 | COC(=O)N(c1ccc(C[N+]2([O-])CCC(C(OC(=O)Nc3cc(F)cc(F)c3)c3ccc(C(F)(F)F)cc3)CC2)cc1)c1ccccn1 (stereo not drawn) [Compound 761] | 100%

Same assay, conditions: tobacco budworm second instar larvae; surface-treated diet; 0.25 millimoles of candidate insecticide on the surface of the diet; five-day exposure; compared to total number of insects infested

Row | Structure (SMILES) | Percent Mortality
19 | CCn1nnc(-c2ccc(CN3CCC(C(OC(=O)Nc4ccc(F)c(F)c4)c4ccccc4Cl)CC3)cc2)n1 (stereo not drawn) [Compound 569] | 100%
20 | COc1ccc(CNC(=O)OC(c2ccc(C(F)(F)F)cc2)C2CCN(Cc3ccc(Oc4ccccn4)cc3)CC2)cc1 (stereo not drawn) [Compound 698] | 100%
21 | Cn1nnc(-c2ccc(CN3CCC(C(NC(=O)Nc4ccccc4F)c4ccc(OC(F)(F)F)cc4)CC3)cc2)n1 (stereo not drawn) [Compound 338] | 100%
22 | CCOC(=O)c1ccc(C[N+]2([O-])CCC(=C(c3ccc(C(F)(F)F)cc3)c3ccc(C(F)(F)F)cc3)CC2)cc1 (stereo not drawn) [Compound 99] | 100%
23 | CCON=Cc1ccc(CN2CCC(C(OC(=O)Nc3ccc(Br)cc3)c3ccc(C(F)(F)F)cc3)CC2)cc1 (stereo not drawn) [Compound 183] | 100%
24 | CCCOc1ccc(CN2CCC(C(OC(=O)Nc3cccc(C(F)(F)F)c3)c3ccc(F)cc3)CC2)cc1 (stereo not drawn) [Compound 477] | 100%
25 | O=C(Nc1cc(F)cc(F)c1)OC(c1ccc(C(F)(F)F)cc1)C1CCN(Cc2ccc(Oc3c(F)cccc3F)cc2)CC1 (stereo not drawn) [Compound 548] | 100%
26 | CCn1nnc(-c2ccc(CN3CCC(C(OC(=O)Nc4ccc(Cl)cc4)c4ccc(Cl)c(Cl)c4)CC3)cc2)n1 (stereo not drawn) [Compound 572] | 100%
27 | CCn1nnc(-c2ccc(CN3CCC(C(OC(=O)Nc4ccc(Cl)cc4)c4ccccc4)CC3)cc2)n1 (stereo not drawn) [Compound 564] | 100%
28 | CCn1nnc(-c2ccc(CN3CCC(C(OC(=O)Nc4ccc(C(F)(F)F)cc4)c4ccccc4Cl)CC3)cc2)n1 (stereo not drawn) [Compound 571] | 100%
29 | CCn1nnc(-c2ccc(CN3CCC(C(OC(=O)Nc4ccc(C(F)(F)F)cc4)c4ccc(C)cc4)CC3)cc2)n1 (stereo not drawn) [Compound 600] | 100%
30 | O=C(Nc1cccc(C(F)(F)F)c1)OC(c1cccc(C(F)(F)F)c1)C1CCN(Cc2ccc(Oc3ccccn3)cc2)CC1 (stereo not drawn) [Compound 655] | 100%
31 | COc1ccc(CN2CCC(C(OC(=O)Nc3cc(F)cc(F)c3)c3ccc(OC(F)(F)F)cc3)CC2)cc1 (stereo not drawn) [Compound 469] | 17%
32 | O=C(Nc1ccc(F)c(F)c1)OC(c1ccc(C(F)(F)F)cc1)C1CCN(Cc2ccc(Oc3ccccn3)cc2)CC1 (stereo not drawn) [Compound 237] | 100%
33 | Cc1ccc(C(=O)NC(c2ccc(OC(F)(F)F)cc2)C2CCN(Cc3ccc(-c4nnn(C)n4)cc3)CC2)cc1 (stereo not drawn) [Compound 330] | 33%
34 | CON=Cc1ccc(CN2CCC(C(OC(=O)Nc3ccc(F)c(F)c3)c3ccc(OC(F)(F)F)cc3)CC2)cc1 (stereo not drawn) [Compound 194] | 100%
35 | CC(C)OC(=O)Nc1ccc(CN2CCC(C(OC(=O)Nc3cc(F)cc(F)c3)c3ccc(C(F)(F)F)cc3)CC2)cc1 (stereo not drawn) [Compound 512] | 100%
36 | CCCOc1ccc(CN2CCC(C(OC(=O)Nc3ccc(F)cc3)c3ccc(Cl)cc3)CC2)cc1 (stereo not drawn) [Compound 471] | 100%
37 | CC(C)NC(=O)OC(c1ccc(C(F)(F)F)cc1)C1CCN(Cc2ccc(Oc3ccccn3)cc2)CC1 (stereo not drawn) [Compound 429] | 100%
38 | CCn1nnc(-c2ccc(CN3CCC(C(OC(=O)Nc4cccc(C(F)(F)F)c4)c4ccc(Oc5ccccc5)cc4)CC3)cc2)n1 (stereo not drawn) [Compound 620] | 0%
39 | Cn1nnc(-c2ccc(C[N+]3([O-])CCC(C(OC(=O)Nc4ccc(C(F)(F)F)cc4)c4ccc(OC(F)(F)F)cc4)CC3)cc2)n1 (stereo not drawn) [Compound 402] | 100%
40 | O=C(Nc1cc(F)cc(F)c1)OC(c1ccc(C(F)(F)F)cc1)C1CCN(Cc2ccc(NC3=NCCO3)cc2)CC1 (stereo not drawn) [Compound 563] | 0%
41 | CCn1nnc(-c2ccc(CN3CCC(C(OC(=O)Nc4ccc(C(F)(F)F)cc4)c4ccc(OC(F)(F)F)cc4)CC3)cc2)n1 (stereo not drawn) [Compound 291] | 100%
42 | Cn1nnc(-c2ccc(CN3CCC(C(NC(=O)c4ccc(Cl)cc4)c4ccc(OC(F)(F)F)cc4)CC3)cc2)n1 (stereo not drawn) [Compound 324] | 83%
43 | O=C(Nc1cc(F)cc(F)c1)OC(c1ccc(C(F)(F)F)cc1)C1CCN(Cc2ccc(Oc3ccccn3)cc2)CC1 (stereo not drawn) [Compound 680] | 17%
44 | Fc1cc(F)cc(NC(=S)OC(c2ccc(C(F)(F)F)cc2)C2CCN(Cc3ccc(Oc4ccccn4)cc3)CC2)c1 (stereo not drawn) [Compound 681] | 100%
45 | CC(C)(C)C(=O)Nc1ccc(CN2CCC(C(OC(=O)Nc3cc(F)cc(F)c3)c3ccc(C(F)(F)F)cc3)CC2)cc1 (stereo not drawn) [Compound 497] | 17%

Same assay, conditions: tobacco budworm second instar larvae; surface-treated diet; 0.25 millimoles of candidate insecticide on the surface of the diet; five-day exposure; inhibition of insect weight relative to untreated controls

Row | Structure (SMILES) | Percent Growth Inhibition
46 | CCn1nnc(-c2ccc(CN3CCC(C(OC(=O)Nc4ccc(F)c(F)c4)c4ccccc4Cl)CC3)cc2)n1 (stereo not drawn) [Compound 569] | 100%
47 | COc1ccc(CNC(=O)OC(c2ccc(C(F)(F)F)cc2)C2CCN(Cc3ccc(Oc4ccccn4)cc3)CC2)cc1 (stereo not drawn) [Compound 698] | 100%
48 | Cn1nnc(-c2ccc(CN3CCC(C(NC(=O)Nc4ccccc4F)c4ccc(OC(F)(F)F)cc4)CC3)cc2)n1 (stereo not drawn) [Compound 338] | 100%
49 | CCOC(=O)c1ccc(C[N+]2([O-])CCC(=C(c3ccc(C(F)(F)F)cc3)c3ccc(C(F)(F)F)cc3)CC2)cc1 (stereo not drawn) [Compound 99] | 100%
50 | CCON=Cc1ccc(CN2CCC(C(OC(=O)Nc3ccc(Br)cc3)c3ccc(C(F)(F)F)cc3)CC2)cc1 (stereo not drawn) [Compound 183] | 100%
51 | CCCOc1ccc(CN2CCC(C(OC(=O)Nc3cccc(C(F)(F)F)c3)c3ccc(F)cc3)CC2)cc1 (stereo not drawn) [Compound 477] | 100%
52 | O=C(Nc1cc(F)cc(F)c1)OC(c1ccc(C(F)(F)F)cc1)C1CCN(Cc2ccc(Oc3c(F)cccc3F)cc2)CC1 (stereo not drawn) [Compound 548] | 100%
53 | CCn1nnc(-c2ccc(CN3CCC(C(OC(=O)Nc4ccc(Cl)cc4)c4ccc(Cl)c(Cl)c4)CC3)cc2)n1 (stereo not drawn) [Compound 572] | 100%
54 | CCn1nnc(-c2ccc(CN3CCC(C(OC(=O)Nc4ccc(Cl)cc4)c4ccccc4)CC3)cc2)n1 (stereo not drawn) [Compound 564] | 100%
55 | CCn1nnc(-c2ccc(CN3CCC(C(OC(=O)Nc4ccc(C(F)(F)F)cc4)c4ccccc4Cl)CC3)cc2)n1 (stereo not drawn) [Compound 571] | 100%
56 | CCn1nnc(-c2ccc(CN3CCC(C(OC(=O)Nc4ccc(C(F)(F)F)cc4)c4ccc(C)cc4)CC3)cc2)n1 (stereo not drawn) [Compound 600] | 100%
57 | O=C(Nc1cccc(C(F)(F)F)c1)OC(c1cccc(C(F)(F)F)c1)C1CCN(Cc2ccc(Oc3ccccn3)cc2)CC1 (stereo not drawn) [Compound 655] | 100%
58 | COc1ccc(CN2CCC(C(OC(=O)Nc3cc(F)cc(F)c3)c3ccc(OC(F)(F)F)cc3)CC2)cc1 (stereo not drawn) [Compound 469] | 100%
59 | O=C(Nc1ccc(F)c(F)c1)OC(c1ccc(C(F)(F)F)cc1)C1CCN(Cc2ccc(Oc3ccccn3)cc2)CC1 (stereo not drawn) [Compound 237] | 100%
60 | Cc1ccc(C(=O)NC(c2ccc(OC(F)(F)F)cc2)C2CCN(Cc3ccc(-c4nnn(C)n4)cc3)CC2)cc1 (stereo not drawn) [Compound 330] | 89%
61 | CON=Cc1ccc(CN2CCC(C(OC(=O)Nc3ccc(F)c(F)c3)c3ccc(OC(F)(F)F)cc3)CC2)cc1 (stereo not drawn) [Compound 194] | 100%
62 | CC(C)OC(=O)Nc1ccc(CN2CCC(C(OC(=O)Nc3cc(F)cc(F)c3)c3ccc(C(F)(F)F)cc3)CC2)cc1 (stereo not drawn) [Compound 512] | 100%
63 | CCCOc1ccc(CN2CCC(C(OC(=O)Nc3ccc(F)cc3)c3ccc(Cl)cc3)CC2)cc1 (stereo not drawn) [Compound 471] | 100%
64 | CC(C)NC(=O)OC(c1ccc(C(F)(F)F)cc1)C1CCN(Cc2ccc(Oc3ccccn3)cc2)CC1 (stereo not drawn) [Compound 429] | 100%
65 | CCn1nnc(-c2ccc(CN3CCC(C(OC(=O)Nc4cccc(C(F)(F)F)c4)c4ccc(Oc5ccccc5)cc4)CC3)cc2)n1 (stereo not drawn) [Compound 620] | 29%
66 | Cn1nnc(-c2ccc(C[N+]3([O-])CCC(C(OC(=O)Nc4ccc(C(F)(F)F)cc4)c4ccc(OC(F)(F)F)cc4)CC3)cc2)n1 (stereo not drawn) [Compound 402] | 100%
67 | O=C(Nc1cc(F)cc(F)c1)OC(c1ccc(C(F)(F)F)cc1)C1CCN(Cc2ccc(NC3=NCCO3)cc2)CC1 (stereo not drawn) [Compound 563] | 96%
68 | CCn1nnc(-c2ccc(CN3CCC(C(OC(=O)Nc4ccc(C(F)(F)F)cc4)c4ccc(OC(F)(F)F)cc4)CC3)cc2)n1 (stereo not drawn) [Compound 291] | 95%
69 | Cn1nnc(-c2ccc(CN3CCC(C(NC(=O)c4ccc(Cl)cc4)c4ccc(OC(F)(F)F)cc4)CC3)cc2)n1 (stereo not drawn) [Compound 324] | 99%
70 | O=C(Nc1cc(F)cc(F)c1)OC(c1ccc(C(F)(F)F)cc1)C1CCN(Cc2ccc(Oc3ccccn3)cc2)CC1 (stereo not drawn) [Compound 680] | 100%
71 | Fc1cc(F)cc(NC(=S)OC(c2ccc(C(F)(F)F)cc2)C2CCN(Cc3ccc(Oc4ccccn4)cc3)CC2)c1 (stereo not drawn) [Compound 681] | 100%
72 | CC(C)(C)C(=O)Nc1ccc(CN2CCC(C(OC(=O)Nc3cc(F)cc(F)c3)c3ccc(C(F)(F)F)cc3)CC2)cc1 (stereo not drawn) [Compound 497] | 100%
